The target in assay [1] is mutEGFR (D770_N771insSVD) (Homo sapiens (Human), UniProt P00533, INS770SVD). Nature of the assay: biochemical. The following applies: mutEGFR (D770_N771 insSVD) at 2 mM ATP IC50, 2 mM ATP.
Another assay concerns Ba/F3-EGFR-WT. Description: Ba/F3 cell survival assay, WT EGFR. It is filed as cell-based.
The subject of a further assay is Ba/F3-EGFR-insSVD. Description: Ba/F3 cell survival assay, EGFR-insSVD. The class given is cell-based. The method, boiled down: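 Ba/F3 cells stably expressing WT EGFR or EGFR-insSVD via retrovirus, grown without IL-3 on 10 ng/mL EGF, plated at 4000 cells/well. Compound exposure 48 h at 37 °C; viability read by CellTiter-Glo luminescence.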
Another assay deals with human Bub1 (Homo sapiens (Human), UniProt O43683). Nature of the assay: Bub1 high ATP kinase assay (TR-FRET). The class given is biochemical. The text has this:
Bub1-inhibitory activity of compounds of the present invention at a high ATP concentration was quantified employing the Bub1 TR-FRET high ATP kinase assay as described in the following paragraphs.
N-terminally His6-tagged recombinant catalytic domain of human Bub1 (amino acids 704-1085), expressed in insect cells (Hi5) and purified by Ni-NTA affinity chromatography and subsequent size exclusion chromatography, was used as enzyme.
On the technique in general: Time-resolved FRET reads energy transfer from a long-lived donor to a nearby acceptor.

The mark [2] stands for this setting: Mus musculus, BaF3, 48 h, read-out: BA/F3 (wild type) IC50, cell viability, Cell Titer-Glo, 48 h, with 10 ng/mL EGF, without IL-3.
[3] abbreviates: Mus musculus, BaF3, 48 h, read-out: BA/F3 (insSVD) IC50, cell viability, Cell Titer-Glo, 48 h, with 10 ng/mL EGF, without IL-3.
Where [4] appears, read: Bub1 high ATP (2 mM) IC50, 2 mM ATP.
Setting [5] is: read-out: Bub1 high ATP (2 mM) IC50, 2 mM ATP.
Where [6] appears, read: read-out: BA/F3 (insSVD) IC50, cell viability, Cell Titer-Glo, 48 h, with 10 ng/mL EGF, without IL-3.
The mark [7] stands for this setting: read-out: BA/F3 (wild type) IC50, cell viability, Cell Titer-Glo, 48 h, with 10 ng/mL EGF, without IL-3.

SMILES strings stand for the structures. pIC50: −log10 of the molar value. Several values for one entry are separate records, joined by “and”; a condition that tells them apart may be missing. Equal entries are not always repeated. Where two headings read alike, the source gives them in different places. A value given as a limit tells only on which side of the number the result lay.

Sequence of human Bub1 (O43683 704-1085): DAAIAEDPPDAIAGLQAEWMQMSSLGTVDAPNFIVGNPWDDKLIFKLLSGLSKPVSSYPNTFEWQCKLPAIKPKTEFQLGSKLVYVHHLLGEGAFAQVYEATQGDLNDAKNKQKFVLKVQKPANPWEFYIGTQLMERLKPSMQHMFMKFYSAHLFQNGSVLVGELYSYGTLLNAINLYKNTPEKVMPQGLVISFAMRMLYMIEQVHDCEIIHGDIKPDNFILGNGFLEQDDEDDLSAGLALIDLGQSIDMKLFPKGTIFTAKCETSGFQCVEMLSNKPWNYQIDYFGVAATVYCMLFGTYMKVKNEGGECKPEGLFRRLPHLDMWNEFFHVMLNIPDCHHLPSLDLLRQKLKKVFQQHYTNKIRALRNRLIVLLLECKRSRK
Sequence of mutEGFR (D770_N771insSVD) (P00533 other isoform, or with tags, fused parts or gaps ins SVD behind 770): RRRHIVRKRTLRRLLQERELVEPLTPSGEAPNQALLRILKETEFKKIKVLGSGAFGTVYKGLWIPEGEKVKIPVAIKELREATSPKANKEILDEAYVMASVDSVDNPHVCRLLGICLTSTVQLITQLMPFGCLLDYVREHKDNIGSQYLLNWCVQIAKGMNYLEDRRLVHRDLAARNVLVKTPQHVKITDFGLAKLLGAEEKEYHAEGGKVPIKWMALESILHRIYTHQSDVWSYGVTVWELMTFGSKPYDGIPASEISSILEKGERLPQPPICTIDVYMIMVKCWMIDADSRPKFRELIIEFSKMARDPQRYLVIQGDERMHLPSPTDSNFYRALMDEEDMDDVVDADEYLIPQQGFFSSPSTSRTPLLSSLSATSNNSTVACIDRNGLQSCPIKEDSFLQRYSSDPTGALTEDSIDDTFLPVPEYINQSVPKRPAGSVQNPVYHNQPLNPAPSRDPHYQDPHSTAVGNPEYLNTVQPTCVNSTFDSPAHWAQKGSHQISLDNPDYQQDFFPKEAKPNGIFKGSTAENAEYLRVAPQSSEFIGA

In the case of `COc1c(Cl)cccc1Nc1c(-c2ccncc2OC[C@@H]2CCN2C)[nH]c2c1C(=O)NCC2` [Example 27, 3-(3-chloro-2-methoxyanilino)-2-(3-{[(2S)-1-methylazetidin-2-yl]methoxy}pyridin-4-yl)-1,5,6,7-tetrahydro-4H-pyrrolo[3,2-c]pyridin-4-one], the results for the pIC50 (in assay [1]; with Ba/F3-EGFR-WT (setting [2]); with Ba/F3-EGFR-insSVD (setting [3])) were 9.35, 6.03 and 7.44, respectively.
Take `COc1c(Cl)cccc1Nc1c(-c2ccncc2OC[C@H]2CCN2CC(F)(F)F)[nH]c2c1C(=O)NCC2` [Example 30, 3-(3-chloro-2-methoxyanilino)-2-(3-{[(2R)-1-(2,2,2-trifluoroethyl)azetidin-2-yl]methoxy}pyridin-4-yl)-1,5,6,7-tetrahydro-4H-pyrrolo[3,2-c]pyridin-4-one]: the pIC50 in assay [1] was 9.46; in the assay on Ba/F3-EGFR-WT (setting [2]), 6.40; in the assay on Ba/F3-EGFR-insSVD (setting [3]) it was 7.98.
For `COc1c(Cl)cccc1Nc1c(-c2ccncc2OC[C@@H]2CCN2CC(F)(F)F)[nH]c2c1C(=O)NCC2` [Example 29, 3-(3-chloro-2-methoxyanilino)-2-(3-{[(2S)-1-(2,2,2-trifluoroethyl)azetidin-2-yl]methoxy}pyridin-4-yl)-1,5,6,7-tetrahydro-4H-pyrrolo[3,2-c]pyridin-4-one], the pIC50 in assay [1] is 9.52; with Ba/F3-EGFR-WT (setting [2]), 5.98; in the assay on Ba/F3-EGFR-insSVD (setting [3]) it was 7.22.
For the compound `COc1c(F)cccc1Nc1c(-c2ccncc2OCCC2CCO2)[nH]c2c1C(=O)NCC2` (single isomer, unassigned) [Example 44, 3-(3-fluoro-2-methoxyanilino)-2-{3-[2-(oxetan-2-yl)ethoxy]pyridin-4-yl}-1,5,6,7-tetrahydro-4H-pyrrolo[3,2-c]pyridin-4-one], the pIC50 at human Bub1 (setting [4]) was below 4.70; with Ba/F3-EGFR-WT (setting [2]), 6.04; with Ba/F3-EGFR-insSVD (setting [3]), 7.47.
For the compound `Cc1cccc(Nc2c(-c3ccncc3OCC3OCC3(C)C)[nH]c3c2C(=O)NCC3)c1Cl` (racemic) [Example 58, 3-(2-chloro-3-methylanilino)-2-{3-[(3,3-dimethyloxetan-2-yl)methoxy]pyridin-4-yl}-1,5,6,7-tetrahydro-4H-pyrrolo[3,2-c]pyridin-4-one], the pIC50 at human Bub1 (setting [5]) was below 4.70; in the assay on Ba/F3-EGFR-WT (setting [2]) it was 5.84; in the assay on Ba/F3-EGFR-insSVD (setting [3]), 6.97.
As to `COc1c(F)cccc1Nc1c(-c2ccncc2OC[C@H]2CCN2C)[nH]c2c1C(=O)NCC2` [Example 79, 3-(3-fluoro-2-methoxyanilino)-2-(3-{[(2R)-1-methylazetidin-2-yl]methoxy}pyridin-4-yl)-1,5,6,7-tetrahydro-4H-pyrrolo[3,2-c]pyridin-4-one], the pIC50 was 9.14 in assay [1], 6.15 in the assay with Ba/F3-EGFR-WT (setting [2]) and 6.95 with Ba/F3-EGFR-insSVD (setting [3]).
As to `CCN1CC[C@H]1COc1cnccc1-c1[nH]c2c(c1Nc1cccc(Cl)c1OC)C(=O)NCC2` [Example 28, 3-(3-chloro-2-methoxyanilino)-2-(3-{[(2S)-1-ethylazetidin-2-yl]methoxy}pyridin-4-yl)-1,5,6,7-tetrahydro-4H-pyrrolo[3,2-c]pyridin-4-one], the pIC50 in assay [1] was 8.97; in the assay with Ba/F3-EGFR-WT (setting [2]), 5.75; in the assay with Ba/F3-EGFR-insSVD (setting [3]), 6.74.
For the compound `O=C1NCCc2[nH]c(-c3ccncc3OCC3CCO3)c(Nc3cccc(Cl)c3Cl)c21` (single isomer, unassigned; (+)) [Example 11, (+)-3-(2,3-dichloroanilino)-2-{3-[(oxetan-2-yl)methoxy]pyridin-4-yl}-1,5,6,7-tetrahydro-4H-pyrrolo[3,2-c]pyridin-4-one], the results for the pIC50 at human Bub1 (setting [5]), with Ba/F3-EGFR-WT (setting [2]) and in the assay on Ba/F3-EGFR-insSVD (setting [3]) were below 4.70, 6.12 and 6.83, respectively.
In the case of `Cc1cccc(Nc2c(-c3ccncc3OCC3CCO3)[nH]c3c2C(=O)NCC3)c1Cl` (racemic) [Example 37, 3-(2-chloro-3-methylanilino)-2-{3-[(oxetan-2-yl)methoxy]pyridin-4-yl}-1,5,6,7-tetrahydro-4H-pyrrolo[3,2-c]pyridin-4-one], the pIC50 is 4.93 on human Bub1 (setting [5]), 6.03 in the assay on Ba/F3-EGFR-WT (setting [2]) and 6.98 with Ba/F3-EGFR-insSVD (setting [3]).
As to `CCC1(COc2cnccc2-c2[nH]c3c(c2Nc2cccc(Cl)c2Cl)C(=O)NCC3)COC1` [Example 87, 3-(2,3-dichloroanilino)-2-{3-[(3-ethyloxetan-3-yl)methoxy]pyridin-4-yl}-1,5,6,7-tetrahydro-4H-pyrrolo[3,2-c]pyridin-4-one], the pIC50 at human Bub1 (setting [5]) is below 5.24; with Ba/F3-EGFR-WT (setting [2]), 6.09; in the assay with Ba/F3-EGFR-insSVD (setting [3]) it was 6.92.
Turning to `COc1c(Nc2c(-c3ccncc3OCC3CCO3)[nH]c3c2C(=O)NCC3)ccc(F)c1Cl` (single isomer, unassigned; (-)) [Example 14, (−)-3-(3-chloro-4-fluoro-2-methoxyanilino)-2-{3-[(oxetan-2-yl)methoxy]pyridin-4-yl}-1,5,6,7-tetrahydro-4H-pyrrolo[3,2-c]pyridin-4-one], the pIC50 at human Bub1 (setting [5]) is 4.79; with Ba/F3-EGFR-WT (setting [2]) it was 5.78; in the assay with Ba/F3-EGFR-insSVD (setting [6]) it was 6.36.
In the case of `COc1c(F)cccc1Nc1c(-c2ccncc2OCC2(C)CCO2)[nH]c2c1C(=O)NCC2` (racemic) [Example 19, 3-(3-fluoro-2-methoxyanilino)-2-{3-[(2-methyloxetan-2-yl)methoxy]pyridin-4-yl}-1,5,6,7-tetrahydro-4H-pyrrolo[3,2-c]pyridin-4-one], the pIC50 at human Bub1 (setting [5]) was 4.86 and < 4.70; with Ba/F3-EGFR-WT (setting [2]), 5.69; in the assay with Ba/F3-EGFR-insSVD (setting [3]) it was 7.18.
In the case of `COc1c(F)cccc1Nc1c(-c2ccncc2OCC2(C)CCO2)[nH]c2c1C(=O)NCC2` (single isomer, unassigned; (+)) [Example 21, (+)-3-(3-fluoro-2-methoxyanilino)-2-{3-[(2-methyloxetan-2-yl)methoxy]pyridin-4-yl}-1,5,6,7-tetrahydro-4H-pyrrolo[3,2-c]pyridin-4-one], the pIC50 on human Bub1 (setting [5]) was below 4.70; in the assay on Ba/F3-EGFR-WT (setting [7]), 6.24; with Ba/F3-EGFR-insSVD (setting [6]), 7.39.
As to `COc1c(Cl)cccc1Nc1c(-c2ccncc2OCC2(C)CCO2)[nH]c2c1C(=O)NCC2` (racemic) [Example 46, 3-(3-chloro-2-methoxyanilino)-2-{3-[(2-methyloxetan-2-yl)methoxy]pyridin-4-yl}-1,5,6,7-tetrahydro-4H-pyrrolo[3,2-c]pyridin-4-one], the pIC50 at human Bub1 (setting [5]) is 4.99; in the assay with Ba/F3-EGFR-WT (setting [2]), 6.02; in the assay with Ba/F3-EGFR-insSVD (setting [3]), 7.17.
In the case of `COc1c(Nc2c(-c3ccncc3OCC3CCO3)[nH]c3c2C(=O)NCC3)ccc(F)c1Cl` (racemic) [Example 13, 3-(3-chloro-4-fluoro-2-methoxyanilino)-2-{3-[(oxetan-2-yl)methoxy]pyridin-4-yl}-1,5,6,7-tetrahydro-4H-pyrrolo[3,2-c]pyridin-4-one], the figures for the pIC50 at human Bub1 (setting [5]), in the assay on Ba/F3-EGFR-WT (setting [2]) and in the assay with Ba/F3-EGFR-insSVD (setting [3]) were below 4.70, 5.64 and 6.46, respectively.
`COc1c(Br)cccc1Nc1c(-c2ccncc2OCC2CCO2)[nH]c2c1C(=O)NCC2` (single isomer, unassigned) [Example 34, 3-(3-bromo-2-methoxyanilino)-2-{3-[(oxetan-2-yl)methoxy]pyridin-4-yl}-1,5,6,7-tetrahydro-4H-pyrrolo[3,2-c]pyridin-4-one]: the results for the pIC50 on human Bub1 (setting [4]), in the assay with Ba/F3-EGFR-WT (setting [7]) and in the assay on Ba/F3-EGFR-insSVD (setting [6]) were below 4.70, 6.28 and 7.69, respectively.

The values are drawn from patent US20240307362A1 (priority 2019, published 2024).
